Where two headings read alike, the source gives them in different places.
Tests used:
[1] = tested on: T.b. brucei; assay: T.b. brucei temporal viability (time-kill) assay, 24 h, PrestoBlue; assay type: cell-based, Trypanosoma brucei brucei; conditions: for Emax: read-out: Emax 24 h T.b. brucei (converted); for IC50: read-out: IC50 24 h T.b. brucei
Method: Time-kill assays was undertaken as previously described, using the REDOX reagent PrestoBlue® [24]. […] Control compounds were added at the same concentrations at outlined for the resazurin-based assays.

[2] = tested on: T. cruzi and T.b. brucei; assay: Speed of action and cidality classification from temporal and wash off assays; assay type: cell-based, Trypanosoma cruzi, Trypanosoma brucei brucei; conditions: for Speed of Action (FA/SA): TBB = T.b. brucei
[3] = tested on: T.b. brucei; assay: T.b. brucei temporal viability (time-kill) assay, 48 h, PrestoBlue; assay type: cell-based, Trypanosoma brucei brucei; conditions: for Emax: read-out: Emax 48 h T.b. brucei (converted); for IC50: read-out: IC50 48 h T.b. brucei
[4] = tested on: HEK293 cells; assay: HEK293 cytotoxicity assay; assay type: cell-based, human; conditions: HEK293, 72 h; NA = not active; highest dose 79 µM unless given
[5] = tested on: T.b. brucei bloodstream 427 strain parasites; assay: T.b. brucei 72 h REDOX-based (resazurin) viability assay; assay type: cell-based, Trypanosoma brucei brucei; conditions: for Emax / IC50 / Emax % (T.b. brucei): 72 h; for SI (T.b. brucei) HEK: selectivity index in relation to HEK293 cells; for SI (T.b. brucei) (HEP): selectivity index in relation to HEPG2 cells
[6] = tested on: T. cruzi Tulahuen strain parasites in 3T3 host cells; assay: T. cruzi 48 h image-based assay; assay type: cell-based, Trypanosoma cruzi; conditions: for Emax % (T. cruzi) / IC50 / Emax: 48 h; for IC50: read-out: IC50 (T. cruzi); for SI (T. cruzi) 3T3: selectivity index in relation to 3T3 host cells, highest dose 3T3 73 µM; for SI (T. cruzi) HEK: selectivity index in relation to HEK293 cells; for Emax: read-out: Emax % (T. cruzi) (converted); for SI (T. cruzi) (HEP): selectivity index in relation to HEPG2 cells
[7] = tested on: T. cruzi; assay: T. cruzi temporal image-based assay, 24 h exposure; assay type: cell-based, Trypanosoma cruzi; conditions: for IC50: read-out: IC50 24 h T. cruzi
[8] = tested on: T. cruzi; assay: T. cruzi compound wash off assay (48 h with compound, wash off, 72 h without); assay type: cell-based, Trypanosoma cruzi; conditions: T. cruzi; for Fold Change of IC50, wash off vs 48 h: IC50 from 48 h incubation to IC50 following wash off and further 72 h; for IC50: read-out: IC50 Wash Off
[9] = Trypanosoma cruzi, NA = not active at given concentration
[10] = Trypanosoma cruzi, 48 h incubation, wash off, further 72 h
[11] = 48 h incubation, wash off, further 72 h

Fold Change of IC50, wash off vs 48 h [8] [fold]	SMILES	Speed of Action (FA/SA) ([2]; TC = T. cruzi)	SI (T.b. brucei) HEK [5]	IC50 [4] [nM]	Emax % (T.b. brucei) [5] [%]	IC50 [5] [nM]	Emax % (T. cruzi) [6] [%]	IC50 [6] [nM]	SI (T. cruzi) 3T3 [6]	SI (T. cruzi) HEK [6]	also measured
–	C[C@@H]1[C@H](O)[C@@H](C)/C=C/C=C/C=C/C=C/C=C/C=C/C=C/[C@H](O[C@@H]2O[C@H](C)[C@@H](O)[C@H](N)[C@@H]2O)C[C@@H]2O[C@](O)(C[C@@H](O)C[C@@H](O)[C@H](O)CC[C@@H](O)C[C@@H](O)CC(=O)O[C@H]1C)C[C@H](O)[C@H]2C(=O)O [Amphotericin B, reference compound]	FA (Fast-acting (FA) = IC50 value can be determined following 24 h incubation, <10-fold difference in the IC50 value from 24 to 72 h)	>2.6	–	–	–	–	–	–	–	Emax ([1]; Trypanosoma brucei): 100%; IC50 ([1]; Trypanosoma brucei): 880 ± 163 nM; Emax ([3]; Trypanosoma brucei): 100%; IC50 ([3]; Trypanosoma brucei): 260 ± 1.6 nM; IC50 HEK [4]: NA at 4.0 µM (NT); Emax ([5]; Trypanosoma brucei): 100%; IC50 ([5]; Trypanosoma brucei): 1500 ± 88 nM
–	O=C(Nc1ccc(N2CCNCC2)cc1)c1ccn2ncc(-c3cccc(Cl)c3)c2n1 [MMV 22478]	–	8.0	12000 ± 390	98	1500 ± 180	100	5900 ± 1300	1.04	2.03 (NT)	SI (T.b. brucei) HEK ([5]; listed as MMV022478): < 10; SI (T. cruzi) HEK ([6]; listed as MMV022478): < 10
0.60	CC1CS(=O)(=O)CCN1/N=C/c1ccc([N+](=O)[O-])o1 (stereo not shown) [Nifurtimox, reference compound]	FA (Fast-acting (FA) = IC50 value can be determined following 24 h incubation, <10-fold difference in the IC50 value from 24 to 72 h)	–	–	–	–	–	–	>149	–	IC50 [7, 9]: 1030 ± 76 nM; IC50 [8, 10]: 350 ± 14 nM; Emax ([6]; Trypanosoma cruzi, TULAHUEN): 100%; IC50 ([6]; Trypanosoma cruzi, TULAHUEN): 850 ± 48 nM
1.2	CN1CCN(S(=O)(=O)c2ccc(-c3ccc4c(Nc5ncc(Cl)cn5)ccnc4c3)cc2)CC1 [MMV 688283]	SA (TC)	>10 (>10)	–	99	7600 ± 270	100	6600 ± 1200	>11	>12 (>12)	Emax 24 h T.b. brucei [1]: 94%; IC50 [1]: 7800 ± 320 nM; Emax 48 h T.b. brucei [3]: 96%; IC50 [3]: 6200 ± 450 nM; Emax Wash Off [8, 11]: 100%; IC50 [8, 11]: 7600 ± 1500 nM; SI (T.b. brucei) (HEP) [5]: >10 (>10); Emax % (T. cruzi) ([6]; listed as MMV688283): > 95%; SI (T. cruzi) (HEP) [6]: >12 (>12)
–	c1ccc(Oc2ccc(-c3cc(N4CCNCC4)[nH]n3)cc2)cc1 [MMV 687706]	–	7.4	16200 ± 5200	99	2200 ± 2.8	99	11000 ± 205	>6.6	1.5 (NT)	–
–	CC1CCCCN1C(=O)NCCc1coc(-c2ccc(F)cc2)n1 (stereo not shown) [MMV 688797]	FA (Fast-acting (FA) = IC50 value can be determined following 24 h incubation, <10-fold difference in the IC50 value from 24 to 72 h)	>814 (>814)	–	–	–	–	–	>143	>154 (>154)	Emax ([1]; Trypanosoma brucei): 99%; IC50 ([1]; Trypanosoma brucei): 150 ± 29 nM; Speed of Action (Table 5) ([2]; prioritised compounds, Fast/Slow): Fast; Emax ([7]; Trypanosoma cruzi): 86%; IC50 [7, 9]: 890 ± 135 nM; Emax ([3]; Trypanosoma brucei): 99%; IC50 ([3]; Trypanosoma brucei): 100 ± 6.2 nM; IC50 [8, 10]: 380 ± 56 nM; Emax ([5]; Trypanosoma brucei): 99%; IC50 ([5]; Trypanosoma brucei): 97 ± 2.1 nM; SI (T.b. brucei) (HEP) [5]: >814 (>814); Emax ([6]; Trypanosoma cruzi, TULAHUEN): 100%; IC50 ([6]; Trypanosoma cruzi, TULAHUEN): 510 ± 110 nM; SI (T. cruzi) (HEP) [6]: >154 (>154)
–	N=C(N)c1ccc(/N=N/Nc2ccc(C(=N)N)cc2)cc1 [Diminazene aceturate, reference compound]	FA (Fast-acting (FA) = IC50 value can be determined following 24 h incubation, <10-fold difference in the IC50 value from 24 to 72 h)	>1027	–	–	–	–	–	–	–	Emax ([1]; Trypanosoma brucei): 99%; IC50 ([1]; Trypanosoma brucei): 210 ± 58 nM; Emax ([3]; Trypanosoma brucei): 100%; IC50 ([3]; Trypanosoma brucei): 70 ± 27 nM; IC50 HEK [4]: NA at 38 µM (NT); Emax ([5]; Trypanosoma brucei): 100%; IC50 ([5]; Trypanosoma brucei): 37 ± 0.41 nM
0.36	CC[C@@H]([C@H](C)O)n1ncn(-c2ccc(N3CCN(c4ccc(OC[C@@H]5CO[C@@](Cn6cncn6)(c6ccc(F)cc6F)C5)cc4)CC3)cc2)c1=O [Posaconazole, reference compound]	SA (Slow-acting (SA) = IC50 value unable to be determined following 24 h incubation (no plateau of activity, or plateau of activity is <80% or IC50 value < 10 µM), or >10-fold difference in the IC50 value from 24 to 72 h)	–	–	–	–	77	–	>333	–	Cidal / Static / Not efficacious ([2]; from wash off and 48 h Emax, TC = T. cruzi): Not efficacious (TC); IC50 24 h T. cruzi ([7]; NA = not active at given concentration): NA at 1 µM; Emax [8, 10]: 100%; IC50 [8, 10]: 1.8 ± 0.078 nM; Emax ([6]; Trypanosoma cruzi, TULAHUEN): 73%; IC50 ([6]; Trypanosoma cruzi, TULAHUEN): 5.5 ± 0.0041 nM
–	N=C(N)c1ccc(-c2cc(-c3ccccc3)on2)cc1 [MMV 688514]	–	6.0	9100 ± 460	99	1500 ± 27	100	4900 ± 160	2.7	1.9 (NT)	SI (T.b. brucei) HEK ([5]; listed as MMV688514): < 10; SI (T. cruzi) HEK ([6]; listed as MMV688514): < 10
1.2	OCCc1ccc(Nc2nccc(-c3nnc4ccccn34)n2)cc1 [MMV 028694]	SA (TC)	12	9700 ± 50	100	830 ± 57	98	9400 ± 1800	>7.8	1.0 (NT)	Emax 24 h T.b. brucei [1]: 87%; IC50 [1]: 700 ± 190 nM; Emax 48 h T.b. brucei [3]: 100%; IC50 [3]: 710 ± 130 nM; Emax Wash Off [8, 11]: 98%; IC50 [8, 11]: 12000 ± 1800 nM; Emax % (T. cruzi) ([6]; listed as MMV028694): > 95%; SI (T. cruzi) 3T3 ([6]; listed as MMV028694): > 7.8; SI (T. cruzi) HEK ([6]; listed as MMV028694): 1
–	CN1CCC(NCc2cccc(-c3ccc(S(=O)(=O)NCc4ccccc4)cc3)c2)CC1 [MMV 22029]	–	5.6	8100 ± 54	99	1500 ± 59	100	8200 ± 690	1.2	1.0 (NT)	SI (T.b. brucei) HEK ([5]; listed as MMV022029): < 10; SI (T. cruzi) HEK ([6]; listed as MMV022029): < 10

SMILES	Fold Change of IC50, wash off vs 48 h [8] [fold]	Speed of Action (FA/SA) ([2]; TC = T. cruzi)	SI (T.b. brucei) HEK [5]	IC50 [4] [nM]	Emax % (T.b. brucei) [5] [%]	IC50 [5] [nM]	Emax % (T. cruzi) [6] [%]	IC50 [6] [nM]	SI (T. cruzi) 3T3 [6]	SI (T. cruzi) HEK [6]	also measured
Cc1cc(C2=NOC(c3cc(Cl)c(F)c(Cl)c3)(C(F)(F)F)C2)ccc1C(=O)NCc1ccc2c(c1)C(C)(C)OB2O (stereo not shown) [MMV 687776]	1.0	SA (TC)	3.0	13000 ± 1600	99	4300 ± 1300	100	1600 ± 380	>46	8.1	Emax 24 h T.b. brucei [1]: 89%; IC50 [1]: 5350 ± 103 nM; Emax 48 h T.b. brucei [3]: 99%; IC50 [3]: 4040 ± 1780 nM; Emax Wash Off [8, 11]: 100%; IC50 [8, 11]: 1600 ± 64 nM; SI (T.b. brucei) (HEP) [5]: > 18; Emax % (T. cruzi) ([6]; listed as MMV687776): > 95%; SI (T. cruzi) 3T3 ([6]; listed as MMV687776): > 46; SI (T. cruzi) (HEP) [6]: > 50
